Molecules are shown by their SMILES. Several values for one entry are separate records, joined by “and”; a condition that tells them apart may be missing. Equal entries are not always repeated. Entries after “also recorded” stand apart in the source; their conditions may differ.

Data set [1] can be described thus: Solubility in solvents. It is filed as physicochemical.
For data set [2], the system named is bacteriophage MS2. The data set is described as follows: Phage inactivation, phage titer (PFU), MS2. It is filed as cell-based. The following applies: 10 ug/ml, UV-light, 1 hour. The procedure:
Bacteriophage Preparation and Titer. E. coli cells were grown in the standard Luria broth. The fresh E. coli culture was inoculated from an overnight culture followed by approximately three hours incubation at 37° C. to the exponential growth phase (O.D.600˜0.5). At this growth phase, the E. coli cells were collected by centrifuge and washed with Escherichia coli minimal medium (Glucose 5 g/L, Na2HPO4 6 g/L, KH2PO4 3 g/L, NH4Cl 1 g/L, NaCl 0.5 g/L, MgSO4, 0.12 g/L, CaCl2 0.01 g/L, pH 7.2) twice. The cell pellet was resuspended with minimal medium. The phage stock solutions were added into their corresponding bacterial host suspensions the phage-bacteria mixture incubated for 15 minutes at 37° C. for infection. The phage-bacteria mixture was transferred into fresh Escherichia coli minimal medium and incubated overnight for viral replication. […] The phage titer was determined by plaque forming units (PFU). […] After 6˜8 hours incubation, the plaque forming units were counted and phage solutions were diluted to 10^6˜10^7 PFU/ml with the minimal medium for further use.
Phage Inactivation. […] The viral inactivation ability was determined by phage titer as stated above and calculated by log (N0/N), where N is the PFU of the phage solution after exposure to CPEs/OPEs; N0 represents the PFU of corresponding negative control (without CPEs, OPEs or UV-irradiation). […]

A short description of data set [3]: Absorption and fluorescence spectroscopy. The data set is classed as physicochemical. The following applies: for absorbance intensity after 30 min relative to that measured at 1 min: 10 μM in H2O. The procedure:
(§1) Photophysical study. For the absorption and fluorescence spectroscopy, we prepared a stock solution with concentration of 1 mM oligomer and 10% v/v solution of DMSO in H2O. 30 μL of the sonicated suspension of each EO-OPE-1 was diluted into 3 mL solution in a quartz cuvette to give a concentration of 10 μM. Absorption and fluorescence were performed on plate reader (SpectroMax M-5 microplate reader, Molecular Devices) at 24° C. Transient absorption spectra were recorded for EO-OPE-1 samples in both methanol and water. Transient absorption spectra were collected using laser systems that are described elsewhere 1, 2. The optical density was adjusted to 0.7 at the excitation wavelength (355 nm) with the laser energy being 6-7 mJ. Solutions were purged with argon for […] before making transient absorption spectroscopy measurements.

Data set [4] has as its system E.coli, S.epidermis, and S.aureus. The data set is described as follows: Dead/live assays, biocidal activity stated without singling out a bacterium. The data set is classed as cell-based. The note with it: UV irradiation. The procedure:
(§2) Dead/live assays were performed to test the biocidal activity of EO-OPE-1(C3, A), EO-OPE-1 (C2, A), EO-OPE-1 (C3, S) and EO-OPE-1 (Th, C3, A) against E.coli, S.epidermis, and S.aureus. E.coli, S.epidermis, and S.aureus were cultured in 50 mL of Difco™ Nutrient broth (LOT 4057492, Becton, Dickinson and Company, Sparks, Md. 21152 USA), Difco™ Nutrient broth (LOT 4057492, Becton, Dickinson and Company, Sparks, Md. 21152 USA), and BBL™ Brain Heart Infusion (LOT 8263271, Becton, Dickinson and Company, Sparks, Md. 21152 USA), respectively, for 18 h at 37° C. under shaking. The bacteria were collected by centrifuging 50 mL of culture at 4,000 rpm in an Eppendorf centrifuge for 15 min at 4° C. The pellet was re-suspended with the assistance of vortex in 25 mL of 0.85% NaCl solution and repelleted. The wash cycle was repeated twice. Bacterial concentrations were measured and normalized using a disposal hemocytometer (INCYTO Co., Ltd), counts being 2.5˜3.0×10^7/mL. The diluted bacteria suspension was added to 1.5 mL of black and transparent microtubes in aliquots of 500 μL for dark and light samples, respectively. Three groups of live controls were prepared with cells suspended in black microtubes, transparent microtubes, and quartz cuvettes at the same concentrations, but without chemicals. These bacteria samples were titrated by OPEs with various concentrations followed by staying in dark for dark samples/controls and exposing to UV irradiation in a photoreactor chamber for light samples/controls with certain duration.
(§3) Dead/live assays were carried out using two sets of stains: SYTO 9/Propidium iodide for E.coli and SYTO 24/Propidium iodide for S.epidermis and S.aureus. SYTO 9 and SYTO 24 are cell membrane permeant nucleic acid stains with green (˜498 nm for SYTO 9 and ˜515 nm for SYTO 24) fluorescence and used to stain both live and dead cells; Propidium iodide is a red-fluorescent nucleic acid stain that is membrane impermeable to viable cells but stains DNA or RNA of dead cells with comprised membranes and emits red (˜617 nm) fluorescence, indicating cell death. Upon the completion of the above treatment, a 1 to 1 ratio mixture of the two dyes was prepared and added into the samples (2.4 μL mixed dyes for 500 μL suspension) and incubated for 15 minutes in the dark. Bacteria were then examined under a 40× oil objective on a Zeiss LSM 510 Meta confocal laser scanning microscope and an Accuri C6 flow cytometer to identify and quantify those live and dead bacteria.

Data set [5] is described as follows: Transient absorption spectroscopy (triplet state). The data set is classed as physicochemical. The procedure: as §1
Singlet oxygen generation. Excited triplet state (ETS) plays an essential role in the generation of ROS and 1O2. […] Another important point to note is that all members of EO-OPE-1 series underwent fast photobleaching in water during TA experiments (approximately 40-50% reduction in signal intensity). To minimize the error due to photobleaching, fresh samples were prepared and used in each run. […] On the other hand, the triplet lifetimes for EO-OPE-1(C3, A), EO-OPE-1 (C2, A), EO-OPE-1 (C3, S), and EO-OPE-1 (Th, C3, A) are 5.2 μs, 17.9 μs, 18.7 μs, and 7.2 μs, respectively. Based on the above discussions, we would expect C will give a higher yield of 1O2, with lower yields for EO-OPE-1 (C2, A), EO-OPE-1(C3, A), and EO-OPE-1 (C3, S).

The test system of data set [6] is MS2 and T4 bacteriophages. In words: Antiviral activity, general statement. It is filed as cell-based.
In data set [7] the test system is E.coli. The data set is described as follows: Dead/live assay, biocidal activity against E.coli. The data set is classed as cell-based. The note with it: under 365 nm radiation. The procedure: (§4) Dead/live assays were performed to test the biocidal activity of EO-OPE-1(C3, A), EO-OPE-1 (C2, A), EO-OPE-1 (C3, S) and EO-OPE-1 (Th, C3, A) against E.coli, S.epidermis, and S.aureus. E.coli, S.epidermis, and S.aureus were cultured in 50 mL of Difco™ Nutrient broth (LOT 4057492, Becton, Dickinson and Company, Sparks, Md. 21152 USA), Difco™ Nutrient broth (LOT 4057492, Becton, Dickinson and Company, Sparks, Md. 21152 USA), and BBL™ Brain Heart Infusion (LOT 8263271, Becton, Dickinson and Company, Sparks, Md. 21152 USA), respectively, for 18 h at 37° C. under shaking. The bacteria were collected by centrifuging 50 mL of culture at 4,000 rpm in an Eppendorf centrifuge for 15 min at 4° C. […] Bacterial concentrations were measured and normalized using a disposal hemocytometer (INCYTO Co., Ltd), counts being 2.5˜3.0×10^7/mL. […]
(§5) Dead/live assays were carried out using two sets of stains: SYTO 9/Propidium iodide for E.coli and SYTO 24/Propidium iodide for S.epidermis and S.aureus. SYTO 9 and SYTO 24 are cell membrane permeant nucleic acid stains with green (˜498 nm for SYTO 9 and ˜515 nm for SYTO 24) fluorescence and used to stain both live and dead cells; Propidium iodide is a red-fluorescent nucleic acid stain that is membrane impermeable to viable cells but stains DNA or RNA of dead cells with comprised membranes and emits red (˜617 nm) fluorescence, indicating cell death. […]

The test system of data set [8] is S.epidermis. The data set is described as follows: Dead/live assay, biocidal activity against S.epidermis. It is filed as cell-based, Staphylococcus epidermis. The following applies: under 365 nm radiation. The procedure:
as §4, §5

Data set [9] concerns S.aureus. The data set is described as follows: Dead/live assay, biocidal activity against S.aureus. The data set is classed as cell-based. The following applies: for light activated death of S. aureus: light and dark conditions, 0.1 to 5 μg/mL, various time points (FIGS. 22-25). The procedure:
as §2, §3
Experiments similar to those described in Example 1 above were performed using TM and OPE1-DABCO against S. Aureus. FIG. 22 is a graph showing TM vs. 7×10^7/mL S. aureus under light and dark conditions at concentrations of 0.1 and 1 μg/mL and at various time points (5, 10, 15, 30, 45, and 60 minutes). FIG. 23 is a graph showing EO-OPE1-DABCO vs 6×10^7/mL S. aureus under light and dark conditions at different concentrations of 0.1, 1, and 5 μg/mL and at various time points. FIG. 24 is a graph showing EO-OPE1-DABCO vs S. Aureus under light and dark conditions at a concentration of 1 μg/mL and at various time points. FIG. 25 is a graph showing EO-OPE1-DABCO vs S. Aureus under light and dark conditions at different concentrations of 0.1 and 1 μg/mL and at various time points.

As for `C[N+](C)(C)CCCOc1ccc(C#Cc2ccc(C#Cc3ccc(OCCC[N+](C)(C)C)cc3)cc2)cc1.[I-].[I-]` [EO-OPE-1 (C3, A)], in [1], the “solubility in CH3OH” value is “moderately soluble”; the “solubility in DMF and DMSO” value is recorded as “quite soluble”; the “solubility in water” value is “poorly soluble”. Besides, the “inactivation of MS2 phage in the presence of UV irradiation” value in data set [2] is on record as “enhanced inactivation”. The “absorbance intensity after 30 min relative to that measured at 1 min” value in data set [3] is reported as “around 2 times”. In addition, in [3] (in water), the “Fluorescence quantum yields(Φf)*” value was determined as 0.52 ± 0.05. In addition, in data set [3] (in water; A)), the “Fluorescence quantum yields(Φf)*” value worked out at 0.59. In addition, the “light-induced biocidal activity” value in [4] is “dramatic light-induced biocidal activity”. The “transient absorption (TA) intensity, comparison in words” value (“transient absorption (TA) intensity” below) in data set [5] is reported as “comparable”. Further, in [5] (in H2O), the “τ3/intensity in H2O” value was 0.07, the “τ3/λmax(nm) in H2O” value amounted to 545 nm and the “τ3/μs in H2O (triplet lifetime)” value worked out at 17.9 μs. Moreover, the “τ3/μs in H2O (triplet lifetime)” value in data set [5] (in H2O; A)) turned out to be 5.2 μs. For the same compound, the “antiviral activity” value in data set [6] is “significant antiviral activity”.
Consider `C[N+](C)(C)CCOc1ccc(C#Cc2ccc(C#Cc3ccc(OCC[N+](C)(C)C)cc3)cc2)cc1.[I-].[I-]` [EO-OPE-1 (C2, A)], for which, in [1], the “solubility in CH3OH” value is “moderately soluble”; the “solubility in DMF and DMSO” value is reported as “quite soluble”; the “solubility in water” value is reported as “poorly soluble”. Also, the “absorbance intensity after 30 min relative to that measured at 1 min” value in [3] is “the same”. For the same compound, the “Fluorescence quantum yields(Φf)*” value in data set [3] (in water) was 0.59 ± 0.05. Further, the “light-induced biocidal activity” value in [4] is recorded as “dramatic light-induced biocidal activity”. For the same compound, the “transient absorption (TA) intensity” value in [5] is recorded as “comparable”. Moreover, in [5] (in H2O), the “τ3/intensity in H2O” value is 0.065; the “τ3/λmax(nm) in H2O” value was 541 nm; the “τ3/μs in H2O (triplet lifetime)” value was 17.9 μs and 18.7 μs.
On to `O=S(=O)([O-])CCCOc1ccc(C#Cc2ccc(C#Cc3ccc(OCCCS(=O)(=O)[O-])cc3)cc2)cc1.[Na+].[Na+]` [EO-OPE-1 (C3, S)], for which, in [1], the “solubility in CH3OH” value is listed as “moderately soluble”; the “solubility in DMF and DMSO” value was “quite soluble”; the “solubility in water” value is “poorly soluble”. In addition, the “killing of E. coli” value in data set [7] is “kill”. The “absorbance intensity after 30 min relative to that measured at 1 min” value in data set [3] worked out at 1.5 times. In addition, the “Fluorescence quantum yields(Φf)*” value in [3] (in water) is 0.46 and 0.50 ± 0.07. Moreover, in data set [8], the “killing of S. epidermis” value was “kill”. In addition, the “light-induced biocidal activity” value in [4] was “dramatic light-induced biocidal activity; also recorded: relatively poor light-induced biocidal activity”. The “transient absorption (TA) intensity” value in data set [5] is “comparable”. For the same compound, in data set [5] (in H2O), the “τ3/intensity in H2O” value amounted to 0.06 and the “τ3/λmax(nm) in H2O” value is recorded as 543 nm. Also, in data set [9] (under 365 nm radiation), the “killing of S. aureus” value is “kill”.
For the compound `COc1cc(C#Cc2ccc(C#Cc3ccc(OCCC[N+](C)(C)C)cc3)cc2)cc(OC)c1OC.[I-]` [TM], the “light activated death of S. aureus” value in data set [9] is “light activated death is clearly demonstrated”.
The same measure, in the same setting: the value for `CCCCCC[N+]12CC[N+](CCCOc3ccc(C#Cc4ccc(C#Cc5ccc(OCCC[N+]67CC[N+](CCCCCC)(CC6)CC7)cc5)cc4)cc3)(CC1)CC2.[Br-].[Br-].[Br-].[Br-]` [EO-OPE-1-DABCO] was “light activated death is clearly demonstrated”.

The values are drawn from patent US10092000B2, “Structure, synthesis, and applications for oligo phenylene ethynylenes (OPEs)” (STC.UNM, priority 2010, dated 2018).
